Laboratory results: ChEMBL document CHEMBL4118194, “Molecular modeling, synthesis, antibacterial and cytotoxicity evaluation of sulfonamide derivatives of benzimidazole, indazole, benzothiazole and thiazole” (Bioorg Med Chem, 2018)
≈ marks a conversion by molar mass, not a printed value.

Assays:
Bacillus cereus [1] = assay: Synergistic antibacterial activity against Bacillus cereus NCIM 2156 assessed as fractional inhibitory concentration at 0.37 to 50 ug/ml after 24 hrs in presence of […] sulfamethoxazole by broth micro dilution method; assay type: functional
Pseudomonas aeruginosa [2] = assay: Synergistic antibacterial activity against Pseudomonas aeruginosa NCIM 2036 at 0.37 to 50 ug/ml after 24 hrs in presence of […] chloramphenicol by broth micro dilution method; assay type: functional; settings: NCIM 2036, 24 h
Bacillus cereus [3] = assay: Antibacterial activity against Bacillus cereus NCIM 2156 after 24 hrs by broth micro dilution method; assay type: functional; settings: NCIM 2156, 24 h
Staphylococcus aureus [4] = assay: Synergistic antibacterial activity against Staphylococcus aureus NCIM 2079 assessed as fractional inhibitory concentration at 0.37 to 50 ug/ml after 24 hrs in presence of […] chloramphenicol by broth micro dilution method; assay type: functional
Vero = assay: Cytotoxicity against African green monkey Vero cells assessed as decrease in cell viability after 3 days by MTT assay; assay type: cell-based; settings: Chlorocebus sabaeus, 72 h
PBMC = assay: Cytotoxicity against human PBMC assessed as decrease in cell viability after 5 days by MTT assay; assay type: cell-based; settings: 120 h
Bacillus cereus [5] = assay: Synergistic antibacterial activity against Bacillus cereus NCIM 2156 at 0.37 to 50 ug/ml after 24 hrs in presence of […] chloramphenicol by broth micro dilution method; assay type: functional; settings: NCIM 2156, 24 h
Escherichia coli [6] = assay: Potency index, ratio of chloramphenicol MIC to compound MIC for wild type Escherichia coli NCIM 2065; assay type: functional
Escherichia coli [7] = assay: Synergistic antibacterial activity against wild type Escherichia coli NCIM 2065 at 0.5 times MIC after 24 hrs in presence of 0.0976 to […] sulfamethoxazole by broth micro dilution method; assay type: functional; settings: NCIM 2065, 24 h
Staphylococcus aureus [8] = assay: Antibacterial activity against Staphylococcus aureus NCIM 2079 after 24 hrs by broth micro dilution method; assay type: functional; settings: NCIM 2079, 24 h
Bacillus cereus [9] = assay: Synergistic antibacterial activity against Bacillus cereus NCIM 2156 assessed as fractional inhibitory concentration at 0.37 to 50 ug/ml after 24 hrs in presence of […] chloramphenicol by broth micro dilution method; assay type: functional
Pseudomonas aeruginosa [10] = assay: Synergistic antibacterial activity against Pseudomonas aeruginosa NCIM 2036 at 0.37 to 50 ug/ml after 24 hrs in presence of […] sulfamethoxazole by broth micro dilution method; assay type: functional; settings: NCIM 2036, 24 h
Staphylococcus aureus [11] = assay: Synergistic antibacterial activity against Staphylococcus aureus NCIM 2079 at 0.37 to 50 ug/ml after 24 hrs in presence of […] sulfamethoxazole by broth micro dilution method; assay type: functional; settings: NCIM 2079, 24 h
Escherichia coli [12] = assay: Antibacterial activity against Escherichia coli U-621 mutant after 24 hrs by broth micro dilution method; assay type: functional; settings: U-621, 24 h
Escherichia coli [13] = assay: Synergistic antibacterial activity against wild type Escherichia coli NCIM 2065 assessed as fractional inhibitory concentration at 0.5 times MIC after 24 hrs in presence of 0.0976 to […] sulfamethoxazole by broth micro dilution method; assay type: functional
Pseudomonas aeruginosa [14] = assay: Synergistic antibacterial activity against Pseudomonas aeruginosa NCIM 2036 assessed as fractional inhibitory concentration at 0.37 to 50 ug/ml after 24 hrs in presence of […] chloramphenicol by broth micro dilution method; assay type: functional
Staphylococcus aureus [15] = assay: Synergistic antibacterial activity against Staphylococcus aureus NCIM 2079 assessed as fractional inhibitory concentration at 0.37 to 50 ug/ml after 24 hrs in presence of […] sulfamethoxazole by broth micro dilution method; assay type: functional
Staphylococcus aureus [16] = assay: Synergistic antibacterial activity against Staphylococcus aureus NCIM 2079 at 0.37 to 50 ug/ml after 24 hrs in presence of […] chloramphenicol by broth micro dilution method; assay type: functional; settings: NCIM 2079, 24 h
CCRF-CEM = assay: Cytotoxicity against human CEM cells assessed as decrease in cell viability after 5 days by MTT assay; assay type: cell-based; settings: 120 h
Bacillus cereus [17] = assay: Synergistic antibacterial activity against Bacillus cereus NCIM 2156 at 0.37 to 50 ug/ml after 24 hrs in presence of […] sulfamethoxazole by broth micro dilution method; assay type: functional; settings: NCIM 2156, 24 h
Escherichia coli [18] = assay: Antibacterial activity against wild type Escherichia coli NCIM 2065 after 24 hrs by broth micro dilution method; assay type: functional; settings: NCIM 2065, 24 h
Escherichia coli [19] = assay: Synergistic antibacterial activity against wild type Escherichia coli NCIM 2065 assessed as fractional inhibitory concentration at 0.5 times MIC after 24 hrs in presence of 0.0976 to […] chloramphenicol by broth micro dilution method; assay type: functional
Escherichia coli [20] = assay: Synergistic antibacterial activity against wild type Escherichia coli NCIM 2065 at 0.5 times MIC after 24 hrs in presence of 0.0976 to […] chloramphenicol by broth micro dilution method; assay type: functional; settings: NCIM 2065, 24 h
Pseudomonas aeruginosa [21] = assay: Antibacterial activity against Pseudomonas aeruginosa NCIM 2036 after 24 hrs by broth micro dilution method; assay type: functional; settings: NCIM 2036, 24 h
Pseudomonas aeruginosa [22] = assay: Synergistic antibacterial activity against Pseudomonas aeruginosa NCIM 2036 assessed as fractional inhibitory concentration at 0.37 to 50 ug/ml after 24 hrs in presence of […] sulfamethoxazole by broth micro dilution method; assay type: functional
Escherichia coli [23] = assay: Synergistic antibacterial activity against wild type Escherichia coli NCIM 2065 assessed as fractional inhibitory concentration at 0.37 to 50 ug/ml after 24 hrs in presence of […] sulfamethoxazole by broth micro dilution method; assay type: functional
Escherichia coli [24] = assay: Synergistic antibacterial activity against wild type Escherichia coli NCIM 2065 at 0.37 to 50 ug/ml after 24 hrs in presence of […] sulfamethoxazole by broth micro dilution method; assay type: functional; settings: NCIM 2065, 24 h
Escherichia coli [25] = assay: Potency index, ratio of sulfamethoxazole MIC to compound MIC for wild type Escherichia coli NCIM 2065; assay type: functional
Escherichia coli [26] = assay: Potency index, ratio of […] MIC to compound MIC for Escherichia coli U-621 mutant; assay type: functional
Pseudomonas aeruginosa [27] = assay: Potency index, ratio of chloramphenicol MIC to compound MIC for Pseudomonas aeruginosa NCIM 2036; assay type: functional
Pseudomonas aeruginosa [28] = assay: Synergistic antibacterial activity against Pseudomonas aeruginosa NCIM 2036 at 0.5 times MIC after 24 hrs in presence of 0.0976 to […] chloramphenicol by broth micro dilution method; assay type: functional; settings: NCIM 2036, 24 h
Escherichia coli [29] = assay: Potency index, ratio of sulfamethoxazole MIC to compound MIC for Escherichia coli U-621 mutant; assay type: functional
Pseudomonas aeruginosa [30] = assay: Synergistic antibacterial activity against Pseudomonas aeruginosa NCIM 2036 at 0.5 times MIC after 24 hrs in presence of 0.0976 to […] sulfamethoxazole by broth micro dilution method; assay type: functional; settings: NCIM 2036, 24 h
Pseudomonas aeruginosa [31] = assay: Synergistic antibacterial activity against Pseudomonas aeruginosa NCIM 2036 assessed as fractional inhibitory concentration at 0.5 times MIC after 24 hrs in presence of 0.0976 to […] sulfamethoxazole by broth micro dilution method; assay type: functional
Pseudomonas aeruginosa [32] = assay: Synergistic antibacterial activity against Pseudomonas aeruginosa NCIM 2036 assessed as fractional inhibitory concentration at 0.5 times MIC after 24 hrs in presence of 0.0976 to […] chloramphenicol by broth micro dilution method; assay type: functional
Pseudomonas aeruginosa [33] = assay: Synergistic antibacterial activity against Pseudomonas aeruginosa NCIM 2036 at 0.5 times MIC after 24 hrs in presence of 0.0976 to […] chloramphenicol by broth micro dilution method relative to compound alone; assay type: functional

Structure (SMILES) | MIC (Bacillus cereus [3]) | IC50 (Vero) | IC50 (PBMC) | MIC (Escherichia coli [7]) | MIC (Staphylococcus aureus [8]) | MIC (Pseudomonas aeruginosa [10]) | MIC (Escherichia coli [12]) | FIC (Escherichia coli [13]) | IC50 (CCRF-CEM) | MIC (Escherichia coli [18]) | FIC (Escherichia coli [19]) | MIC (Escherichia coli [20]) | MIC (Pseudomonas aeruginosa [21]) | FIC (Pseudomonas aeruginosa [22]) | further results
O=S(=O)(c1ccc(Cl)cc1)n1cnc2ccccc21 | 25 µg/mL (≈ 85.4 µM) | > 100 µM | > 100 µM | 0.0976 µg/mL | 12.5 µg/mL (≈ 42.7 µM) | 3.1 µg/mL | 50 µg/mL (≈ 171 µM) | 0.03 | > 61.7 µM | 3.1 µg/mL (≈ 10.6 µM) | 0.12 | 0.391 µg/mL | 12.5 µg/mL (≈ 42.7 µM) | 0.24 | FIC (Bacillus cereus [1]): 0.24; MIC (Pseudomonas aeruginosa [2]): 3.1 µg/mL; FIC (Staphylococcus aureus [4]): 0.24; MIC (Bacillus cereus [5]): 6.2 µg/mL; Ratio (Escherichia coli [6]): 2; FIC (Bacillus cereus [9]): 0.24; MIC (Staphylococcus aureus [11]): 3.1 µg/mL; FIC (Pseudomonas aeruginosa [14]): 0.24; FIC (Staphylococcus aureus [15]): 0.12; MIC (Staphylococcus aureus [16]): 3.1 µg/mL; MIC (Bacillus cereus [17]): 6.2 µg/mL
Cc1ccc(S(=O)(=O)n2cnc3ccccc32)cc1 | 50 µg/mL (≈ 184 µM) | > 100 µM | > 100 µM | – | 25 µg/mL (≈ 91.8 µM) | 6.2 µg/mL | 50 µg/mL (≈ 184 µM) | – | ≥ 100 µM | 6.2 µg/mL (≈ 22.8 µM) | 0.12 | 0.781 µg/mL | 25 µg/mL (≈ 91.8 µM) | 0.24 | FIC (Bacillus cereus [1]): 0.24; MIC (Pseudomonas aeruginosa [2]): 6.2 µg/mL; FIC (Staphylococcus aureus [4]): 0.5; FIC (Escherichia coli [23]): 0.5; MIC (Bacillus cereus [5]): 12.5 µg/mL; FIC (Bacillus cereus [9]): 0.25; MIC (Staphylococcus aureus [11]): 6.2 µg/mL; MIC (Escherichia coli [24]): 3.1 µg/mL; FIC (Pseudomonas aeruginosa [14]): 0.24; FIC (Staphylococcus aureus [15]): 0.49; MIC (Staphylococcus aureus [16]): 12.5 µg/mL; Ratio (Escherichia coli [25]): 2; MIC (Bacillus cereus [17]): 6.2 µg/mL
O=[N+]([O-])c1ccc(S(=O)(=O)n2ncc3cc([N+](=O)[O-])ccc32)cc1 | 6.2 µg/mL (≈ 17.8 µM) | – | – | 0.0976 µg/mL | 6.2 µg/mL (≈ 17.8 µM) | – | 12.5 µg/mL (≈ 35.9 µM) | 0.03 | – | 3.1 µg/mL (≈ 8.9 µM) | 0.06 | 0.195 µg/mL | 3.1 µg/mL (≈ 8.9 µM) | – | Ratio (Escherichia coli [26]): 4; Ratio (Pseudomonas aeruginosa [27]): 2; MIC (Pseudomonas aeruginosa [28]): 0.195 µg/mL; Ratio (Escherichia coli [29]): 4; Ratio (Escherichia coli [6]): 2; MIC (Pseudomonas aeruginosa [30]): 0.195 µg/mL; FIC (Pseudomonas aeruginosa [31]): 0.06; FIC (Pseudomonas aeruginosa [32]): 0.06
O=S(=O)(Nc1nccs1)c1ccc(Cl)cc1 | 3.1 µg/mL (≈ 11.3 µM) | 6.2 µM | > 100 µM | 0.195 µg/mL | 6.2 µg/mL (≈ 22.6 µM) | 1.5 µg/mL | 25 µg/mL (≈ 91 µM) | 0.06 | > 100 µM | 3.1 µg/mL (≈ 11.3 µM) | 0.06 | 0.195 µg/mL | 6.2 µg/mL (≈ 22.6 µM) | 0.24 | Ratio (Escherichia coli [26]): 4; MIC (Pseudomonas aeruginosa [28]): 0.195 µg/mL; Ratio (Escherichia coli [29]): 4; fold change (FC) (Pseudomonas aeruginosa [33]): 32; FIC (Pseudomonas aeruginosa [32]): 0.03
O=C(N[C@H](CO)[C@H](O)c1ccc([N+](=O)[O-])cc1)C(Cl)Cl [CHLORAMPHENICOL] | 6.2 µg/mL (≈ 19.2 µM) | – | – | – | 6.2 µg/mL (≈ 19.2 µM) | – | 50 µg/mL (≈ 155 µM) | – | – | 6.2 µg/mL (≈ 19.2 µM) | – | – | 6.2 µg/mL (≈ 19.2 µM) | – | –
C[C@@H]1C[C@@H]([C@H](O)CC2CC(=O)NC(=O)C2)C(=O)[C@@H](C)C1 [CYCLOHEXIMIDE] | 12.5 µg/mL (≈ 44.4 µM) | 0.2 µM | 0.9 µM | – | 12.5 µg/mL (≈ 44.4 µM) | – | 50 µg/mL (≈ 178 µM) | – | 0.2 µM | 12.5 µg/mL (≈ 44.4 µM) | – | – | 12.5 µg/mL (≈ 44.4 µM) | – | –
Cc1cc(NS(=O)(=O)c2ccc(N)cc2)no1 [SULFAMETHOXAZOLE] | 6.2 µg/mL (≈ 24.5 µM) | – | – | – | 6.2 µg/mL (≈ 24.5 µM) | – | 25 µg/mL (≈ 98.7 µM) | – | – | 3.1 µg/mL (≈ 12.2 µM) | – | – | 3.1 µg/mL (≈ 12.2 µM) | – | –
